Assay results taken from US11612641B2, “Method for treating Huntingtons's disease” (UNIVERSITY OF IOWA RESEARCH FOUNDATION, priority 2014, dated 2023).
Entries after “also recorded” stand apart in the source; their conditions may differ.

What was measured:
[1] = tested on: Q7 and Q111 striatal cells; assay: Western blot of Q7 and Q111 striatal cells treated with Torin1; type: cell-based; settings: 250 nM Torin1, 24 hours
Protocol: (§1) Mutant (Q111) and WT (Q7) striatal cells (Trettel et al., 2000) with full-length HTT were kindly provided by Dr. Marcy MacDonald. The Q7 and Q111 cells were grown at 37° C. in Dulbecco's modified Eagle's medium (DMEM; Sigma Chemical Co, St. Louis, Mo.) supplemented with 10% fetal bovine serum, 1% non-essential amino acids, 2 mM L-glutamine, and 400 μg/ml G418 (Geneticin; Invitrogen, Carlsbad, Calif.).
Mouse striata were harvested and lysed in RIPA buffer containing 50 mM Tris (pH 8.0), 150 mM NaCl, 1% […] detergent, 0.1% SDS detergent, 0.5% deoxycholic acid, and 1 mM β-mercaptoethanol with protease inhibitors (Complete Mini, Roche Applied Science, Mannheim, Germany) and phosphatase inhibitors (PhosSTOP Phosphatase Inhibitor Cocktail, Roche Applied Science, Mannheim, Germany). Tissues were homogenized on ice and spun at 14,000 g for 20 min. Supernatant were used for analysis. Protein concentration was determined by BCA assay (Pierce, Rockford, Ill.) and 20-30 μg of protein was reduced and separated by SDS-PAGE on 4%-10% acrylamide gels and transferred to 0.2 μm Immobilon PVDF membranes (Millipore, Billerica, Mass.). The primary antibodies used were as follows: DARPP-32 (1:1000, Cell Signaling), β-actin (Sigma-Aldrich, 1:5000), S6 (1:1000, Cell Signaling), phospho-S6 (S235/236, 1:1000, Cell Signaling), 4EBP1 (1:1000, Cell Signaling), phospho-4E-BP1 (T37/46, 1:1000, Cell Signaling), mTOR (1:1000, Cell Signaling), Rictor (1:1000, Cell Signaling), Raptor (1:1000, Cell Signaling), CREB (1:1000, Cell Signaling), TORC1 (1:1000, Cell Signaling), PGC1-α (1:1000, abeam), LC3 (1:1000, Novus Biologicals), and Beclin1 (1:1000, Cell Signaling). Secondary antibodies used were HRP-goat anti-mouse IgG and HRP-goat anti-rabbit IgG (Cell Signaling). Blots were developed using ECL Plus Western Blotting Detection System (GE Healthcare, Pittsburgh, Pa.), and then exposed to film. Protein quantification was performed using NIH ImageJ software or the VersaDoc™ Imaging System (Biorad) and Quantity One R analysis software. Band densities were normalized to housekeeping (β-actin) bands from the same samples and lanes.

[2] = tested on: Q7 and Q111 striatal cells; assay: RT-qPCR of HMGCR and HMGCS1 in Q7 and Q111 striatal cells treated with Torin1; type: cell-based; settings: 250 nM Torin1, 24 hours, both mutant and normal cell lines
Protocol: as §1
RNA was isolated from striatal punches using 1 ml of TRIzol. Random-primed first-strand complementary DNA (cDNA) synthesis was performed using 500 ng total RNA (High Capacity cDNA Reverse Transcription Kit; Applied Biosystems, Foster City, Calif.) per manufacturer's protocol. Real-time PCR was performed on a sequence detection system (Prism 7900HT, Applied Biosystems) using SYBR green PCR mix (Invitrogen) or TaqMan 2× Universal Master Mix (Applied Biosystems). The following Taqman primer/probe sets were obtained from Applied Biosystem: Rhes (Mm04209172_m1 and Hs04188091_mH), PGC1-α (Mm01208835_m1), and HMGCS1 (Mm01304569_m1), and HDAC4 (Mm01299557_m1). The primer sequences for SYBR green RT PCR are available upon request. Relative gene expression was determined using the AACT method, normalizing to β-actin.

[3] = tested on: medium spiny neurons (MSN); assay: DARPP-32 staining: MSN cell area and striatal volume in N171-82Q mice; type: in vivo, mouse
Source text: (§2) All animal protocols were approved by the University of Iowa Animal Care and Use Committee. N171-82Q mice were obtained from Jackson Laboratories (Bar Harbor, Me.) and maintained on B6C3F1/J background. Mice were genotyped using primers specific for the mutant human HTT transgene, and hemizygous and age-matched wild-type littermates were used for the indicated experiments. Mice were housed in a controlled temperature environment on a 12-hour light/dark cycle. Food and water were provided ad libitum. For pharmacological studies, RAD001 was obtained from LC Laboratories, diluted to 2 mg/ml in 2% DMSO, and stored at −20° C. […]
(§3) Floating, 40-μm coronal brain sections were processed for immunohistochemical staining of medium spiny neurons or mHTT aggregates using biotin-labeled antibody. […] S6 phosphorylation was detected with a phospho-S6 antibody (S235/236, 1:300, Cell Signaling). […] The areas of DARPP-32 positive MSN were quantified by Olympus DP2-BSW software (version 2.1). The average MSN areas of ipsilateral injected sides were compared to contralateral control sides and expressed as means+SEM. EM48 positive inclusions were counted by an experimenter blinded to treatment groups.
Striatal volume was calculated using point counting methods with the Cavalieri estimator of volume (Michel and Cruz-Orive, 1988). […] A minimum of 200 points were counted over 5 sections. […]

mTORC1 = target: T1, mTORC1 (Mus musculus, UniProt P26883+Q9JLN9); assay: mTORC1 activity (pS6) in striatum of N171-82Q mice given RAD001; type: in vivo; settings: RAD001 for 2 weeks vs vehicle, striata harvested 24 hours after the last dose
T1 construct: Biochemical assessment of mTORC1 activity (pS6) in striatal lysates from N171-82Q mice; from tissue; host or cells: striatum of N171-82Q transgenic mice (in vivo)
Source text: as §2, with “C. Freshly thawed vehicle and RAD001 (30 μmol/kg) were given 3 times per week (Monday, Wednesday, and Friday) for two weeks by gavage as described previously (Fox et al., 2010).” for “C.”
as §3, with “groups. […]” for “groups.”

R6/2 HD mice = R6/2 HD mice (Fox et al., 2010); cited from earlier work

Which CREB [1] does the source give for `CCC(=O)N1CCN(c2ccc(-n3c(=O)ccc4cnc5ccc(-c6cnc7ccccc7c6)cc5c43)cc2C(F)(F)F)CC1` [Torin1] here?
Its CREB is “repressed”.

And the DARPP-32 expression [1]?
Its DARPP-32 expression is “reduced”.

And the PGC1-α [1]?
Its PGC1-α is “repressed”.

What about the p-4E-BP1 levels [1] of the same molecule?
The p-4E-BP1 levels was “reduced”.

What about the pS6 levels [1] of the same molecule?
Its pS6 levels is “reduced”.

What about the “transducer of regulated CREB 1 (TORC1)” value [1] of the same molecule?
Its value is “repressed”.

What about the HMGCR expression [2] of the same molecule?
The HMGCR expression was “reduced expression”.

What about the HMGCS1 expression [2] of the same molecule?
The HMGCS1 expression was “reduced expression”.

Which MSN atrophy ([3]; 2 weeks of RAD001 treatment in the absence of caRheb, N171-82Q mice) does the source give for `CO[C@H]1C[C@@H]2CC[C@@H](C)[C@@](O)(O2)C(=O)C(=O)N2CCCC[C@H]2C(=O)O[C@H]([C@H](C)C[C@@H]2CC[C@@H](OCCO)[C@H](OC)C2)CC(=O)[C@H](C)/C=C(\C)[C@@H](O)[C@@H](OC)C(=O)[C@H](C)C[C@H](C)/C=C/C=C/C=C/1C` [RAD001] here?
Its MSN atrophy is “mild but significant exacerbation”.

And the “morphological effects of caRheb (MSN cell size, striatal volume)” value ([3]; RAD001 30 μmol/kg by gavage 3 times per week for two weeks in AAV.caRheb injected N171-82Q mice)?
Its value is “reversed”.

And the “mTORC1 activity (S6 phosphorylation, pS6)” value (mTORC1)?
Its value is “attenuated; also recorded: inhibits mTORC1 activity”.

What does the source list for `CO[C@H]1C[C@@H]2CC[C@@H](C)[C@@](O)(O2)C(=O)C(=O)N2CCCC[C@H]2C(=O)O[C@H]([C@H](C)C[C@@H]2CC[C@@H](O)[C@H](OC)C2)CC(=O)[C@H](C)/C=C(\C)[C@@H](O)[C@@H](OC)C(=O)[C@H](C)C[C@H](C)/C=C/C=C/C=C/1C` [rapamycin]?
brain atrophy (R6/2 HD mice): enhanced brain atrophy; weight loss (R6/2 HD mice): accelerated weight loss
